Literature values, collected in paper PMC11915028 (ACS Pharmacology & Translational Science, 2025).

Biological target: PSMA expression in PCa lesions (Homo sapiens, UniProt Q04609)
Source text: High tumor-to-background ratios are required for the detection of small cancer/metastatic lesions. The required ratio is ∼10 for the detection of lesions with about 1 cm diameter, but for the detection of smaller lesions (0.3 cm), the required ratio should be almost 90.[30]

Sequence of PSMA expression in PCa lesions (Q04609 whole entry): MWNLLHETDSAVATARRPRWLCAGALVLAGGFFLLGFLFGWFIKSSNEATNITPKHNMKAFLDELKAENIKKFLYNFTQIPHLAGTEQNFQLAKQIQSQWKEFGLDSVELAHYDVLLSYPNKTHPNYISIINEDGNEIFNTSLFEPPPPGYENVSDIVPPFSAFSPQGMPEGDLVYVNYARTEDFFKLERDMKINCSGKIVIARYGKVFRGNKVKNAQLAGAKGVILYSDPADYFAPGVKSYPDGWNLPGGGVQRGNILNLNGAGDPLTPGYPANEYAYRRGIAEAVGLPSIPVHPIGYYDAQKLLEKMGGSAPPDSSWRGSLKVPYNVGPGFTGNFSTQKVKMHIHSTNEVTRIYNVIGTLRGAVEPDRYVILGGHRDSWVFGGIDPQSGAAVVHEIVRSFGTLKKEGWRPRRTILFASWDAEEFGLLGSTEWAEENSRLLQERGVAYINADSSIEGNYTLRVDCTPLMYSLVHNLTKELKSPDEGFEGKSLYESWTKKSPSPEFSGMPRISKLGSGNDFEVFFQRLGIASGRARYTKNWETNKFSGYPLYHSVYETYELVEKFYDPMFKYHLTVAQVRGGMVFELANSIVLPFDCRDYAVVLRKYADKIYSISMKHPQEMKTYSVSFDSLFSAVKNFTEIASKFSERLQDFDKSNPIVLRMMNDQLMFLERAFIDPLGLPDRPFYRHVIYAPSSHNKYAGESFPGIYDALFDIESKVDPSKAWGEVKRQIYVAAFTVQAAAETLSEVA

In the case of `O=C([O-])CN(CCN(CC(=O)[O-])Cc1cc(CCC(=O)NCCCCCC(=O)NCCCC[C@H](NC(=O)N[C@@H](CCC(=O)O)C(=O)O)C(=O)O)ccc1[O-])Cc1cc(CCC(=O)O)ccc1[O-].[68Ga+3].[OH3+]` [[^68Ga]Ga-PSMA-11], the “SUVmax, local recurrences of PCa” value (PET, three hours post-administration) is listed as 3–39 and the “SUVmax, normal prostate gland tissue” value (human, in vivo) is listed as 2−4.
